Test results: US6617350B2, “Inhibitors of aspartyl protease” (priority 1999, dated 2003)
Like-named read-outs stand apart in the source and are kept apart here.

Key:
HIV-1 protease = HIV-1 protease (Human immunodeficiency virus type 1 group M subtype B, UniProt P04585); assay: biochemical
HIV-1 (strain IIIB) = assay: microbe, parasite or virus in culture; assay type: cell-based; settings: anti-viral potency in MT-4 cells, read-out: IC50
[1] = Table 12, HIV-1 protease, read-out: Ki
[2] = Human immunodeficiency virus 1, IIIB, MT4, Table 12

Compound | Ki (HIV-1 protease; [1]) [nM] | IC50 (HIV-1 (strain IIIB); [2]) [nM] | Ki (HIV-1 protease) [nM] | IC50 (HIV-1 (strain IIIB); Table 12) [nM]
CC(C)(CCCCNS(C)(=O)=O)CN(C[C@@H](O)[C@H](Cc1ccccc1)NC(=O)O[C@H]1CO[C@H]2OCC[C@H]21)S(=O)(=O)c1ccc2c(c1)OCCO2 [Compound 256, (3R,3aS,6aR)hexahydrofuro[2,3-b]furan-3-yl N-[(1S,2R)-1-benzyl-3-((2,3-dihydro-1,4-benzodioxin-6-ylsulfonyl)2,2-dimethyl-6-[(methylsulfonyl)amino]hexylamino)-2-hydroxypropyl]carbamate] | < 1 | ≤ 100 | – | –
CC(C)(CCCN)CN(CC(O)C(Cc1ccccc1)NC(=O)OC1COC2OCCC12)S(=O)(=O)c1ccc2c(c1)OCO2 [Compound 257, 3R,3aS,6aR)hexahydrofuro[2,3-b]furan-3-yl N-(1S,2R)-3-[(5-amino-2,2-dimethylpentyl)(1,3-benzodioxol-5-ylsulfonyl)amino]-1-benzyl-2-hydroxypropylcarbamate] | < 1 | 100 to 500 | – | –
CNc1cccc(S(=O)(=O)N(C[C@@H](O)[C@H](Cc2ccccc2)NC(=O)O[C@H]2CO[C@H]3OCC[C@H]32)CC(C)(C)CCCN)c1 [Compound 258, (3R,3aS,6aR)hexahydrofuro[2,3-b]furan-3-yl N-[(1S,2R)-3-((5-amino-2,2-dimethylpentyl)[3-(methylamino)phenyl]sulfonylamino)-1-benzyl-2-hydroxypropyl]carbamate] | < 1 | 100 to 500 | – | –
COc1ccc(S(=O)(=O)N(CC(O)[C@H](Cc2ccccc2)NC(=O)OC2COC3OCCC23)CC(C)(C)CCCC(C)=O)cc1 (some centres unmarked) [Compound 259] | < 1 | ≤ 100 | – | –
C/C(CCC(C)(C)CN(CC(O)[C@H](Cc1ccccc1)NC(=O)OC1COC2OCCC12)S(=O)(=O)c1ccc2c(c1)OCO2)=N\O (stereo partly drawn) [Compound 260, (3R,3aS,6aR)-Hexahydrofuro[2,3-b]furan-3-yl N-((1S,2R)-1-benzyl-3-(2,2-dimethyl-5-hydroxyiminohexyl)[(3,4-methylenedioxyphenyl)sulfonyl]amino-2-hydroxypropyl)carbamate] | < 1 | ≤ 100 | – | –
CO/N=C(\C)CCC(C)(C)CN(CC(O)[C@H](Cc1ccccc1)NC(=O)OC1COC2OCCC12)S(=O)(=O)c1ccc2c(c1)OCO2 (stereo partly drawn) [Compound 261, (3R,3aS,6aR)-Hexahydrofuro[2,3-b]furan-3-yl-N-((1S,2R)-1-benzyl-3-(2,2-dimethyl-5-methoxyiminohexyl)[(3,4-methylenedioxyphenyl)sulfonyl]amino-2-hydroxypropyl)carbamate] | < 1 | ≤ 100 | – | –
CC(C)(CCCN)CN(CC(O)C(Cc1ccccc1)NC(=O)OC1COC2OCCC12)S(=O)(=O)c1ccc2c(c1)OCCO2 [Compound 262, (3R,3aS,6aR)hexahydrofuro[2,3-b]furan-3-yl N-(1S,2R)-3-[(5-amino-2,2-dimethylpentyl)(2,3-dihydro-1,4-benzodioxin-6-ylsulfonyl)amino]-1-benzyl-2-hydroxypropylcarbamate] | < 1 | 100 to 500 | – | –
COC(=O)NCCCC(C)(C)CN(C[C@@H](O)[C@H](Cc1ccccc1)NC(=O)O[C@H]1CO[C@H]2OCC[C@H]21)S(=O)(=O)c1ccc2c(c1)OCO2 [Compound 263, (3R,3aS,6aR)hexahydrofuro[2,3-b]furan-3-yl N-[(1S,2R)-3-((1,3-benzodioxol-5-ylsulfonyl)5-[(methoxycarbonyl)amino]-2,2-dimethylpentylamino)-1-benzyl-2-hydroxypropyl]carbamate] | < 1 | ≤ 100 | – | –
CNc1cccc(S(=O)(=O)N(C[C@@H](O)[C@H](Cc2ccccc2)NC(=O)O[C@H]2CO[C@H]3OCC[C@H]32)CC(C)(C)CCCNC(=O)OC)c1 [Compound 264, (3R,3aS,6aR)hexahydrofuro[2,3-b]furan-3-yl N-[(1S,2R)-1-benzyl-2-hydroxy-3-(5-[(methoxycarbonyl)amino]-2,2-dimethylpentyl[3-(methylamino)phenyl]sulfonylamino)propyl]carbamate] | < 1 | ≤ 100 | – | –
COC(=O)NCCCC(C)(C)CN(C[C@@H](O)[C@H](Cc1ccccc1)NC(=O)O[C@H]1CO[C@H]2OCC[C@H]21)S(=O)(=O)c1ccc2c(c1)OCCO2 [Compound 265, (3R,3aS,6aR)hexahydrofuro[2,3-b]furan-3-yl N-[(1S,2R)-1-benzyl-3-((2,3-dihydro-1,4-benzodioxin-6-ylsulfonyl)5-[(methoxycarbonyl)amino]-2,2-dimethylpentylamino)-2-hydroxypropyl]carbamate] | < 1 | ≤ 100 | – | –
CN(C)C(=O)NCCCC(C)(C)CN(CC(O)C(Cc1ccccc1)NC(=O)OC1COC2OCCC12)S(=O)(=O)c1ccc2c(c1)OCO2 [Compound 266, (3R,3aS,6aR)hexahydrofuro[2,3-b]furan-3-yl N-(1S,2R)-3-[(1,3-benzodioxol-5-ylsulfonyl)(5-[(dimethylamino)carbonyl]amino-2,2-dimethylpentyl)amino]-1-benzyl-2-hydroxypropylcarbamate] | < 1 | ≤ 100 | – | –
CNc1cccc(S(=O)(=O)N(C[C@@H](O)[C@H](Cc2ccccc2)NC(=O)O[C@H]2CO[C@H]3OCC[C@H]32)CC(C)(C)CCCNC(=O)N(C)C)c1 [Compound 267, (3R,3aS,6aR)hexahydrofuro[2,3-b]furan-3-yl N-[(1S,2R)-1-benzyl-3-((5-[(dimethylamino)carbonyl]amino-2,2-dimethylpentyl)[3-(methylamino)phenyl]sulfonylamino)-2-hydroxypropyl]carbamate] | < 1 | ≤ 100 | – | –
CN(C)C(=O)NCCCC(C)(C)CN(CC(O)C(Cc1ccccc1)NC(=O)OC1COC2OCCC12)S(=O)(=O)c1ccc2c(c1)OCCO2 [Compound 268, (3R,3aS,6aR)hexahydrofuro[2,3-b]furan-3-yl N-(1S,2R)-1-benzyl-3-[(2,3-dihydro-1,4-benzodioxin-6-ylsulfonyl)(5-[(dimethylamino)carbonyl]amino-2,2-dimethylpentyl)amino]-2-hydroxypropylcarbamate] | < 1 | ≤ 100 | – | –
CC(C)(CCCNS(C)(=O)=O)CN(C[C@@H](O)[C@H](Cc1ccccc1)NC(=O)O[C@H]1CO[C@H]2OCC[C@H]21)S(=O)(=O)c1ccc2c(c1)OCO2 [Compound 269, (3R,3aS,6aR)hexahydrofuro[2,3-b]furan-3-yl N-[(1S,2R)-3-((1,3-benzodioxol-5-ylsulfonyl)2,2-dimethyl-5-[(methylsulfonyl)amino]pentylamino)-1-benzyl-2-hydroxypropyl]carbamate] | < 1 | ≤ 100 | – | –
CNc1cccc(S(=O)(=O)N(CC(O)C(Cc2ccccc2)NC(=O)OC2COC3OCCC23)CC(C)(C)CCCNS(C)(=O)=O)c1 [Compound 270, (3R,3aS,6aR)hexahydrofuro[2,3-b]furan-3-yl N-[(1S,2R)-1-benzyl-3-((5-[(methylsulfonyl]amino-2,2-dimethylpentyl)[3-(methylamino)phenyl]sulfonylamino)-2-hydroxypropyl]carbamate] | < 1 | ≤ 100 | – | –
CC(C)(CCCNS(C)(=O)=O)CN(C[C@@H](O)[C@H](Cc1ccccc1)NC(=O)O[C@H]1CO[C@H]2OCC[C@H]21)S(=O)(=O)c1ccc2c(c1)OCCO2 [Compound 271, (3R,3aS,6aR)hexahydrofuro[2,3-b]furan-3-yl N-[(1S,2R)-3-((2,3-dihydro-1,4-benzodioxin-6-ylsulfonyl)2,2-dimethyl-5-[(methylsulfonyl)amino]pentylamino)-1-benzyl-2-hydroxypropyl]carbamate] | < 1 | ≤ 100 | – | –
CNC(=O)OCCCC(C)(C)CN(CC(O)[C@H](Cc1ccccc1)NC(=O)OC1COC2OCCC12)S(=O)(=O)c1ccc2c(c1)OCO2 (stereo partly drawn) [Compound 272, (3R,3aS,6aR)-Hexahydrofuro[2,3-b]furan-3-yl N-((1S,2R)-1-benzyl-3-[2,2-dimethyl-5-(N′-methylcarbamoyloxypentyl)][(3,4-methylenedioxyphenyl)sulfonyl]amino-2-hydroxypropyl)carbamate] | – | ≤ 100 | < 1 | –
COc1ccc(S(=O)(=O)N(C[C@@H](O)[C@H](Cc2ccccc2)NC(=O)OC2COCOC2)CC(C)(C)CCC(N)=O)cc1 [Compound 273, {(1S,2R)-1-Benzyl-3-[(4-carboxamide-2,2-dimethyl-butyl)-(4-methoxy-benzenesulfonyl)-amino]-2-hydroxy-propyl}-carbamic acid [1,3]dioxan-5-yl ester] | < 1 | 100 to 500 | – | –
COC(=O)CCC(C)(C)CN(C[C@@H](O)[C@H](Cc1ccccc1)NC(=O)OC1COCOC1)S(=O)(=O)c1ccc(OC)cc1 [Compound 274, {(1S,2R)-1-Benzyl-3-[(4-carbomethoxy-2,2-dimethyl-butyl)-(4-methoxy-benzenesulfonyl)-amino]-2-hydroxy-propyl}-carbamic acid[1,3]dioxan-5-yl ester] | < 1 | 100 to 500 | – | –
COc1ccc(S(=O)(=O)N(CCC(C)=O)C[C@@H](O)[C@H](Cc2ccccc2)NC(=O)O[C@H]2CO[C@H]3OCC[C@H]32)cc1 [Compound 280, {(1S,2R)-3-[(4-methoxybenzenesulfonyl)-(3-butanonyl)-amino]-1-benzyl-2-hydroxy-propyl}-carbamic acid (3R,3aS,6aR)hexahydro-furo[2,3-b]furan-3-yl ester] | < 1 | 100 to 500 | – | –
COc1ccc(S(=O)(=O)N(CCC(C)=O)C[C@@H](O)[C@H](Cc2ccccc2)NC(=O)OC2COCOC2)cc1 [Compound 281] | 1 to 10 | 100 to 500 | – | –
tert-Butyl N-(1S,2R)-1-benzyl-3-(4-cyanobutyl)[(4-methoxyphenyl)sulfonyl]amino-2-hydroxypropyl)carbamate [Compound 4] | 1 to 10 | – | – | 100 to 500
